Laboratory results taken from patent US8349880B2, “Bicyclic compounds for the reduction of beta-amyloid production” (Bristol-Myers Squibb Company, priority 2009, dated 2013).
Read-outs that look alike come from different tables or passages of the source.

Test system: Aβ1-42 production
Assay: Cellular assay for inhibition of Aβ1-42 production (H4 APP751 SWE clone 8.20)
Format: cell-based
Settings: 19 h, H4 APP751 SWE clone 8.20 cells, 19 h incubation
Method: Cellular assays for inhibition of Aβ1-40 and Aβ1-42 production
H4 cells stably transfected with APP751 containing the Swedish mutation (H4 APP751 SWE clone 8.20, developed at BMS) were maintained in log phase through twice weekly passage at a 1:20 split. For IC50 determinations, 30 μl cells (1.5×10^4 cells/well) in DMEM media containing 0.0125% BSA (Sigma A8412) were plated directly into 384-well compound plates (Costar 3709) containing 0.1 μl serially diluted compound in DMSO. Following incubation for 19 h in 5% CO2 at 37° C., plates were briefly centrifuged (1000 rpm, 5 min). A 10 μl aliquot from each well was transferred to a second assay plate (Costar 3709) for Aβ40 measurements. Antibody cocktails were freshly prepared by dilution into 40 mM Tris-HCl (pH 7.4) with 0.2% BSA and added to assay plates. For Aβ42 measurements, antibodies specific for the Aβ42 neoepitope (565, developed at BMS; conjugated to the Wallac reagent (Perkin Elmer)) and the N-terminal sequence of Aβ peptide (26D6, developed at SIBIA; conjugated to APC (Perkin Elmer)) were mixed and 20 μl of the mixture was added to each well of the incubated cell plate yielding a final concentration of 0.8 ng/well 565 and 75 ng/well 26D6. For the Aβ40 measurements, antibodies specific for the Aβ40 neoepitope (TSD, developed at BMS; conjugated to the Wallac reagent (Perkin Elmer)) and 26D6 as described above were mixed and 20 μl of the mixture was added to the 10 μl aliquots which had been removed previously from the cell plate yielding a final concentration of 1.6 ng/well TSD and 17.5 ng/well 26D6. Assay plates containing antibodies were sealed with aluminum foil and incubated overnight at 4° C. Signal was determined using a Viewlux counter (Perkin Elmer) and IC50 values determined using curve fitting in CurveMaster (Excel Fit based).

[1] = read-out: Activity Rating (based on Aβ42 cellular IC50 values)
[2] = read-out: Activity Rating (Aβ42 cellular IC50, given as a number)

Row | Compound | IC50 [1] [nM] | IC50 [2] [nM]
1 | COc1cc(Nc2nc3n(n2)CCCC[C@H]3c2ccc(OCC(F)F)cc2)ccc1-n1cnc(Cl)c1 (single isomer, unassigned) [Example 162] | 10 to 100 | 
2 | COc1cc(Nc2nc3n(n2)CCCC[C@@H]3c2ccc(OCC(F)F)cc2)ccc1-n1cnc(Cl)c1 (single isomer, unassigned) [Example 163] | 10 to 100 | 
3 | COc1cc(Nc2nc3n(n2)CC=CCC3c2ccc(F)cc2)ccc1-n1cnc(Cl)c1 (stereo not drawn) [Example 1, (Z)—N-(4-(4-chloro-1H-imidazol-1-yl)-3-methoxyphenyl)-9-(4-fluorophenyl)-8,9-dihydro-5H-[1,2,4]triazolo[1,5-a]azepin-2-amine] | < 10 | 
4 | COc1cc(Nc2nc3n(n2)CC=CCC3c2ccc(F)cc2)ccc1-n1cnc(C)n1 (stereo not drawn) [Example 4, (Z)-9-(4-fluorophenyl)-N-(3-methoxy-4-(3-methyl-1H-1,2,4-triazol-1-yl)phenyl)-8,9-dihydro-5H-[1,2,4]triazolo[1,5-a]azepin-2-amine] | 10 to 100 | 
5 | COc1cc(Nc2nc3n(n2)CC=CCC3c2ccc(Cl)cc2Cl)ccc1-n1cnc(Cl)c1 (stereo not drawn) [Example 8, (Z)—N-(4-(4-chloro-1H-imidazol-1-yl)-3-methoxyphenyl)-9-(2,4-dichlorophenyl)-8,9-dihydro-5H-[1,2,4]triazolo[1,5-a]azepin-2-amine] | 10 to 100 | 
6 | COc1cc(Nc2nc3n(n2)CC=CCC3(C)C)ccc1-n1cnc(Cl)c1 [Example 9, (Z)—N-(4-(4-chloro-1H-imidazol-1-yl)-3-methoxyphenyl)-9,9-dimethyl-8,9-dihydro-5H-[1,2,4]triazolo[1,5-a]azepin-2-amine 2,2,2-trifluoroacetate] |  | 110
7 | COc1cc(Nc2nc3n(n2)CCCC3c2ccc(F)cc2)ccc1-n1cnc(Cl)c1 (stereo not drawn) [Example 10, N-(4-(4-chloro-1H-imidazol-1-yl)-3-methoxyphenyl)-8-(4-fluorophenyl)-5,6,7,8-tetrahydro-[1,2,4]triazolo[1,5-a]pyridin-2-amine 2,2,2-trifluoroacetate] | 10 to 100 | 
8 | Cc1ncn(-c2ccc(Nc3nc4n(n3)CCCC4c3ccc(F)cc3)cc2C#N)n1 (stereo not drawn) [Example 11, 5-(8-(4-fluorophenyl)-5,6,7,8-tetrahydro-[1,2,4]triazolo[1,5-a]pyridin-2-ylamino)-2-(3-methyl-1H-1,2,4-triazol-1-yl)benzonitrile, 2,2,2-trifluoroacetate] |  | 110

The remaining lines, values ahead:

Row | IC50 [1] [nM] | IC50 [2] [nM] | Compound
9 | 10 to 100 |  | Cc1ncn(-c2ccc(Nc3nc4n(n3)CCCC[C@H]4c3ccc(OC(F)(F)F)c(F)c3)cc2F)n1 (single isomer, unassigned) [Example 165]
10 | < 10 |  | Cc1ncn(-c2ccc(Nc3nc4n(n3)CCCC[C@@H]4c3ccc(OC(F)(F)F)c(F)c3)cc2F)n1 (single isomer, unassigned) [Example 166]
11 | 10 to 100 |  | COc1cc(Nc2nc3n(n2)CCCC[C@H]3c2ccc(OC(F)(F)F)cc2)cc(F)c1-n1cnc(C)n1 (single isomer, unassigned) [Example 168]
12 | 100 to 1000 |  | COc1cc(Nc2nc3n(n2)CCCC[C@@H]3c2ccc(OC(F)(F)F)cc2)cc(F)c1-n1cnc(C)n1 (single isomer, unassigned) [Example 169]
13 | < 10 |  | COc1cc(Nc2nc3n(n2)CCCC[C@H]3c2ccc(OC(F)(F)F)cc2)c(F)cc1-n1cnc(C)n1 (single isomer, unassigned) [Example 176]
14 | 10 to 100 |  | COc1cc(Nc2nc3n(n2)CCCC[C@@H]3c2ccc(OC(F)(F)F)cc2)c(F)cc1-n1cnc(C)n1 (single isomer, unassigned) [Example 177]
15 | 10 to 100 |  | COc1cc(Nc2nc3n(n2)CCCCC3c2ccc(F)cc2)ccc1-n1cnc(C)n1 (stereo not drawn) [Example 7, 9-(4-fluorophenyl)-N-(3-methoxy-4-(3-methyl-1H-1,2,4-triazol-1-yl)phenyl)-6,7,8,9-tetrahydro-5H-[1,2,4]triazolo[1,5-a]azepin-2-amine 2,2,2-trifluoroacetate]
